# Data as given in patent publication US20250073014A1, “METHODS, DEVICES AND SYSTEMS FOR TREATING NEOINTIMAL GROWTH” (priority 2022, published 2025).
# Where two headings read alike, the source gives them in different places.
# Tests used:
# [1] = Stability and solubility of rapamycin in DMSO and DMSO/saline; type: physicochemical; details: in DMSO at −20° C.
# Excerpt: The rapamycin solution in DMSO could be further diluted either in saline, PBS, or distilled water.
# The best working solution is considered to be 50/50 DMSO/water i.e., 50% of the DMSO in solution. This could be envisioned valid if instead of saline blood is used.
# [2] = Rapamycin delivery in isolated porcine carotid artery (LC-MS/MS of tissue and washings); type: in vitro ADME
# Experimental: Sirolimus/Rapamycin was analyzed using an LC-MS/MS system consisting of an Agilent 1290 (San Jose, CA, USA) coupled to electrospray ionization on a triple quadrupole mass spectrometer (Agilent 6460, San Jose, CA, USA) equipped with a turbo ion spray interface in negative ionization mode, and an Agilent LC 1200 Binary pump system (Agilent Technologies, Santa Clara, CA, USA). Ascomycin was used as an internal standard (IS). A Gemini 5 μm NX-C18 110 Å, LC Column polar-RP 80A column (50×2 mm, Phenomenex, Torrance, CA, USA) equipped with a Security Guard™ column (4.0 mm×3.0 mm) was utilized to optimally separate sirolimus and the internal standard from endogenous substances of porcine carotid artery. The mobile phase was a mixture of 20 mM ammonium acetate (A) and methanol (B). Sample separation was conducted using a flow rate of 0.2 mL/min and a 10-min gradient condition (0-1 min: 20% B, 1-6 min: 100% B, 6-7 min: 100% B, 7.1-10 min: 20% B). The injection volume was […] for calibration and carotid artery samples. The selected reaction monitoring transitions of m/z 912.5→371.2 and m/z 790.5→530.3 were applied for sirolimus and IS, respectively. Mass data were acquired using Analyst software version 1.5.2 (Applied Biosystems-SCIEX, Concord, ON, Canada). Data analysis was processed using SCIEX OS offline software version 1.6 (Applied Biosystems-SCIEX, Concord, ON, Canada).
# Sirolimus/Rapamycin was dissolved in acetonitrile to prepare a stock solution (1 mg/mL) and including IS with 2 ng/μL and were gradually diluted by the serial dilution method using calibrated pipettes (2-20 μL, 10-100 μL and 100-1000 μL), in order to obtain working stock dilutions at decreasing concentrations ([…]). These solutions were used for the preparation of mass spectrometry optimization, calibration curve and quality control standards in DMSO and carotid artery homogenates. These stock solutions and stock dilutions were stored at −20° C., respectively.
# Sirolimus/Rapamycin was dissolved in DMSO to prepare a final concentration of 100 mg/mL (stock solution) and stored at −80° C. The porcine carotid arteries were washed 5 times in PBS (1×) to remove all the blood and fluids, followed by cutting them into 40 mm length. The surface area (SA) of the artery was calculated to be 628 mm^2 (lateral SAcylinder=2πrh; π=3.14, r=2.5 mm, and h=40 mm). The Rapamycin solution was diluted in DMSO to prepare […] (2 μg/mm^2). One of the carotid arteries was tied at one end and then it was filled with 0.5 mL of Rapamycin solution ([Rapamycin]0=628 μg/mL) then the open end was tied. After a 5-minute treatment, the solution was drained out, then arteries were washed with 5×0.2 mL of PBS (1×) which was also collected for the analysis. A similar experiment was performed as a biological duplicate. The arteries and the washings were then analyzed for the presence of Sirolimus/Rapamycin for determining the amount that was absorbed by the tissues compared to the amount that was washed out for use as a model.
# Treated and untreated porcine carotid artery segments (100 mg, 2 mm) were shredded in methanol with a surgical blade and transferred to a 2 ml tube with a total volume of 1 ml methanol and 100 μL of internal standard (1 ng/ml). This tube contained garnet beads/shards for homogenizing tissue. Then a Qiagen Tissue Lyser LT was used to beat the artery shreds at 50 Hz for 10 minutes. The supernatant was dried down completely under a gentle stream of nitrogen using a nitrogen evaporator. The samples were resuspended in 100 μL of DMSO and placed in inserted universal autosampler vials prior to analysis.
# [3] = system: cholesterol-induced atherosclerosis; details: cited from earlier work
# [4] = set-up: species or system Yorkshire swine; details: female, Yorkshire, pig, in vivo
# Experimental: Formulations: Two Different Formulations were Prepared: • 1. […] Sirolimus was encapsulated in gelatin nanoparticles (GNP).
# An incision of 5-8 cm was made alongside the femoral (or carotid) artery, and surrounding muscle and perivascular fascia were bluntly dissected to expose the artery.
# The HPLC facility isolated the paclitaxel in usual manner and sirolimus was isolated with an addition step of enzymatic digesting of the GNP with trypsin at 37° C. before the analysis of each of them by Liquid Chromatography with tandem mass spectrometry (LC-MS-MS). • 1. Paclitaxel on day 1 in both the arteries with the final concentration of 12 ng/g in the first artery and 5.2 ng/g in second artery was detected by LC-MS/MS. The solution that was evacuated after 5 min of the formulation in the test site was evaluated by LC-MS/MS to detect 15% (75 mg) of the initial concentration of injected paclitaxel solution. […] Only few nanograms were detected in 24 h and that could indicate that probably 100% DMSO as a carrier took away the paclitaxel from the site to other region of the leg muscles that were not evaluated.
structure (smiles),measurement,setting,value
CO[C@H]1C[C@@H]2CC[C@@H](C)[C@@](O)(O2)C(=O)C(=O)N2CCCC[C@H]2C(=O)O[C@H]([C@H](C)C[C@@H]2CC[C@@H](O)[C@H](OC)C2)CC(=O)[C@H](C)/C=C(\C)[C@@H](O)[C@@H](OC)C(=O)[C@H](C)C[C@H](C)/C=C/C=C/C=C/1C [Rapamycin],Stability of rapamycin in DMSO,[1],many months
same,% of total drug in 2 mm of artery,"[2]; 5-minute treatment, rapamycin in DMSO",30.13%
same,% of total drug in washings (40 mm of artery),[2]; PBS washings after 5-minute treatment,0.5%
same,Delivery efficiency,[2]; Total Dose 220 ug,99.55%
same,Lost in Blood stream (washed out),[2]; Total Dose 220 ug,1 µg
same,Remaining in tissue,[2]; Total Dose 220 ug,68.75 µg
same,"Remaining in tissue, % of the dose",[2]; Total Dose 220 ug,30.13 % of the dose
"C[S+](C)[O-] [DMSO, dimethyl sulfoxide]",Food intake of rabbits on the atherogenic diet,[3],not suppressed
same,Inhibition of aortic lesions,"[3]; rabbits on atherogenic diet, 2% (dose, 1.5 g/kg) DMSO",about 50%
same,Aortic lesions,"[3]; rabbits on atherogenic diet, 4 (3.5 g/kg), 5 (5.5 g/kg) and 6% (9.1 g/kg) DMSO",virtually absent in the majority of rabbits
CC(=O)O[C@H]1C(=O)[C@@]2(C)[C@H]([C@H](OC(=O)c3ccccc3)[C@]3(O)C[C@H](OC(=O)[C@H](O)[C@@H](NC(=O)c4ccccc4)c4ccccc4)C(C)=C1C3(C)C)[C@]1(OC(C)=O)CO[C@@H]1C[C@@H]2O [Paclitaxel],"Drug in solution evacuated after 5 min, % of the initial concentration",[4],15%
same,"Drug in solution evacuated after 5 min, amount",[4],75 mg
same,"Absorbed by the tissue, %",[4]; 5 min,85%
same,"Absorbed by the tissue, amount",[4]; 5 min,425 mg
same,Adverse reaction (edema),day 7 animal,no edema was observed
same,Adverse reaction (edema),day 14 animal,Same lack of reaction was observed
same,Findings around the site of delivery when sutures were opened,in vivo,a lot of dead tissues and blood clots
same,Adverse reaction on injected leg (edema),t=24 h animal,severe edema
